Laboratory results: PubChem BioAssay (NCI)
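GI50 is the concentration that inhibits growth by half. TGI is the concentration that stops growth completely.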

Assays:
Assay in all cases: inhibition of tumour cell growth, NCI panel, 384-well format
SNB-19 CNS = test system: SNB-19 CNS
UACC-62 melanoma = test system: UACC-62 melanoma
OVCAR-8 ovarian = test system: OVCAR-8 ovarian
COLO 205 colon = test system: COLO 205 colon
SK-MEL-28 melanoma = test system: SK-MEL-28 melanoma
RXF 393 renal = test system: RXF 393 renal
SF-295 CNS = test system: SF-295 CNS
SR leukemia = test system: SR leukemia
HL-60(TB) leukemia = test system: HL-60(TB) leukemia
MOLT-4 leukemia = test system: MOLT-4 leukemia
NCI-H460 NSCLC = test system: NCI-H460 NSCLC
NCI-H322M lung = test system: NCI-H322M lung
HCT-116 colon = test system: HCT-116 colon
SK-MEL-5 melanoma = test system: SK-MEL-5 melanoma
A549 NSCLC = test system: A549 NSCLC
SN12C renal = test system: SN12C renal
UO-31 renal = test system: UO-31 renal
MDA-MB-468 breast = test system: MDA-MB-468 breast
SK-MEL-2 melanoma = test system: SK-MEL-2 melanoma
MCF7 breast = test system: MCF7 breast
CCRF-CEM leukemia = test system: CCRF-CEM leukemia
MDA-MB-435 melanoma = test system: MDA-MB-435 melanoma
MDA-MB-231 breast = test system: MDA-MB-231 breast
NCI-H23 lung = test system: NCI-H23 lung
HOP-62 NSCLC = test system: HOP-62 NSCLC
LOX IMVI melanoma = test system: LOX IMVI melanoma
HCC-2998 colon = test system: HCC-2998 colon
A498 renal = test system: A498 renal
DU-145 prostate = test system: DU-145 prostate
IGROV1 ovarian = test system: IGROV1 ovarian
ACHN renal = test system: ACHN renal
M14 melanoma = test system: M14 melanoma
UACC-257 melanoma = test system: UACC-257 melanoma
HCT-15 colon = test system: HCT-15 colon
NCI/ADR-RES ovarian = test system: NCI/ADR-RES ovarian
SW-620 colon = test system: SW-620 colon
786-0 renal = test system: 786-0 renal
CAKI-1 renal = test system: CAKI-1 renal
U251 glioblastoma = test system: U251 glioblastoma
OVCAR-3 ovarian = test system: OVCAR-3 ovarian
SF-539 CNS = test system: SF-539 CNS
PC-3 prostate = test system: PC-3 prostate
HOP-92 NSCLC = test system: HOP-92 NSCLC
TK-10 renal = test system: TK-10 renal
BT-549 breast = test system: BT-549 breast
NCI-H522 lung = test system: NCI-H522 lung
HT29 colon = test system: HT29 colon
RPMI-8226 leukemia = test system: RPMI-8226 leukemia
OVCAR-4 ovarian = test system: OVCAR-4 ovarian
SK-OV-3 ovarian = test system: SK-OV-3 ovarian
KM12 colon = test system: KM12 colon
NCI-H226 lung = test system: NCI-H226 lung
MALME-3M melanoma = test system: MALME-3M melanoma
OVCAR-5 ovarian = test system: OVCAR-5 ovarian
SF-268 CNS = test system: SF-268 CNS
K-562 leukemia = test system: K-562 leukemia

SMILES: Cc1c(-c2c(F)cc(C(N)=O)c3[nH]c4c(c23)CC[C@H](C(C)(C)O)C4)cccc1-n1c(=O)c2cccc(F)c2n(C)c1=O
- GI50 (SNB-19 CNS): 9.94 µM
- TGI (SNB-19 CNS): 24.5 µM
- GI50 (UACC-62 melanoma): 3.6 µM
- TGI (UACC-62 melanoma): 15.7 µM
- GI50 (OVCAR-8 ovarian): 4.62 µM
- TGI (OVCAR-8 ovarian): 22.9 µM
- GI50 (COLO 205 colon): 1.61 µM
- TGI (COLO 205 colon): 4.46 µM
- GI50 (SK-MEL-28 melanoma): 2.87 µM
- TGI (SK-MEL-28 melanoma): 13.8 µM
- GI50 (RXF 393 renal): 1.96 µM
- TGI (RXF 393 renal): 4.07 µM
- GI50 (SF-295 CNS): 3.42 µM
- TGI (SF-295 CNS): 12 µM
- GI50 (SR leukemia): 1.66 µM
- TGI (SR leukemia): 3.04 µM
- GI50 (HL-60(TB) leukemia): 1.12 µM
- TGI (HL-60(TB) leukemia): 2.34 µM
- GI50 (MOLT-4 leukemia): 1.53 µM
- TGI (MOLT-4 leukemia): 2.93 µM
- GI50 (NCI-H460 NSCLC): 2.9 µM
- TGI (NCI-H460 NSCLC): 13.1 µM
- GI50 (NCI-H322M lung): 4.08 µM
- TGI (NCI-H322M lung): 23.6 µM
- GI50 (HCT-116 colon): 3.14 µM
- TGI (HCT-116 colon): 12.1 µM
- GI50 (SK-MEL-5 melanoma): 4.31 µM
- TGI (SK-MEL-5 melanoma): 14.1 µM
- GI50 (A549 NSCLC): 2.43 µM
- TGI (A549 NSCLC): 9.34 µM
- GI50 (SN12C renal): 3.26 µM
- TGI (SN12C renal): 13.1 µM
- GI50 (UO-31 renal): 2 µM
- TGI (UO-31 renal): 5.39 µM
- GI50 (MDA-MB-468 breast): 2.86 µM
- TGI (MDA-MB-468 breast): 5.86 µM
- GI50 (SK-MEL-2 melanoma): 2.18 µM
- TGI (SK-MEL-2 melanoma): 7.9 µM
- GI50 (MCF7 breast): 1.29 µM
- TGI (MCF7 breast): 3.56 µM
- GI50 (CCRF-CEM leukemia): 3.33 µM
- TGI (CCRF-CEM leukemia): 9.78 µM
- GI50 (MDA-MB-435 melanoma): 4.13 µM
- TGI (MDA-MB-435 melanoma): 15.1 µM
- GI50 (MDA-MB-231 breast): 3.59 µM
- TGI (MDA-MB-231 breast): 14.5 µM
- GI50 (NCI-H23 lung): 2.67 µM
- TGI (NCI-H23 lung): 10.9 µM
- GI50 (HOP-62 NSCLC): 8.36 µM
- TGI (HOP-62 NSCLC): 26.5 µM
- GI50 (LOX IMVI melanoma): 5.98 µM
- TGI (LOX IMVI melanoma): 16.2 µM
- GI50 (HCC-2998 colon): 2.33 µM
- TGI (HCC-2998 colon): 6.99 µM
- GI50 (A498 renal): 3.25 µM
- TGI (A498 renal): 9.41 µM
- GI50 (DU-145 prostate): 4.85 µM
- TGI (DU-145 prostate): 23 µM
- GI50 (IGROV1 ovarian): 3.17 µM
- TGI (IGROV1 ovarian): 9.53 µM
- GI50 (ACHN renal): 1.97 µM
- TGI (ACHN renal): 5.73 µM
- GI50 (M14 melanoma): 2.2 µM
- TGI (M14 melanoma): 10.1 µM
- GI50 (UACC-257 melanoma): 2.29 µM
- TGI (UACC-257 melanoma): 10.7 µM
- GI50 (HCT-15 colon): 3.7 µM
- TGI (HCT-15 colon): 13.6 µM
- GI50 (NCI/ADR-RES ovarian): 3.55 µM
- TGI (NCI/ADR-RES ovarian): 13 µM
- GI50 (SW-620 colon): 2.94 µM
- TGI (SW-620 colon): 13.5 µM
- GI50 ([…]-0 renal): 3.27 µM
- TGI (786-0 renal): 14.5 µM
- GI50 (CAKI-1 renal): 2.21 µM
- TGI (CAKI-1 renal): 5.72 µM
- GI50 (U251 glioblastoma): 5.78 µM
- TGI (U251 glioblastoma): 19.8 µM
- GI50 (OVCAR-3 ovarian): 2.54 µM
- TGI (OVCAR-3 ovarian): 6.39 µM
- GI50 (SF-539 CNS): 8 µM
- TGI (SF-539 CNS): 20.9 µM
- GI50 (PC-3 prostate): 3.85 µM
- TGI (PC-3 prostate): 17 µM
- GI50 (HOP-92 NSCLC): 1.45 µM
- TGI (HOP-92 NSCLC): 4.8 µM
- GI50 (TK-10 renal): 2.16 µM
- TGI (TK-10 renal): 4.76 µM
- GI50 (BT-549 breast): 5.1 µM
- TGI (BT-549 breast): 15.7 µM
- GI50 (NCI-H522 lung): 1.89 µM
- TGI (NCI-H522 lung): 6.56 µM
- GI50 (HT29 colon): 1.47 µM
- TGI (HT29 colon): 11.8 µM
- GI50 (RPMI-8226 leukemia): 1.32 µM
- TGI (RPMI-8226 leukemia): 2.7 µM
- GI50 (OVCAR-4 ovarian): 2.8 µM
- TGI (OVCAR-4 ovarian): 7.38 µM
- GI50 (SK-OV-3 ovarian): 2.26 µM
- TGI (SK-OV-3 ovarian): 8.77 µM
- GI50 (KM12 colon): 0.284 µM
- TGI (KM12 colon): 1.54 µM
- GI50 (NCI-H226 lung): 2.56 µM
- TGI (NCI-H226 lung): 10.4 µM
- GI50 (MALME-3M melanoma): 1.79 µM
- TGI (MALME-3M melanoma): 6.95 µM
- GI50 (OVCAR-5 ovarian): 2.56 µM
- TGI (OVCAR-5 ovarian): 11.3 µM
- GI50 (SF-268 CNS): 5.58 µM
- TGI (SF-268 CNS): 21.4 µM
- GI50 (K-562 leukemia): 4.66 µM
- TGI (K-562 leukemia): > 100 µM
